Laboratory results reported in PMC12040169 (PLOS Biology, 2025).

test: in vitro; conditions: human, hela cells, % viability

Row | Structure (SMILES) | viability at 28.5 h, 10 µM [%]
1 | O=C(COc1ccccc1)Nc1nn(Cc2ccc(S(=O)(=O)N3CCCC3)cc2)c2ccccc12 [CBK061594] | 58.6
2 | Cc1cc(Br)ccc1C(=O)NCCc1c[nH]c2ccc(Cl)cc12 [CBK159771] | 91
3 | CN1CCC(N2CCN(C(=O)C3(c4ccccc4)CCCC3)CC2)CC1 [CBK149096] | 99.3
4 | COc1cc(C(=O)Nc2ccc(N3CCN(C)CC3)cc2)ccc1OCc1ccc(Cl)cc1 [CBK266116] | 99
5 | CS(=O)(=O)Nc1cc(-c2noc([C@@H]3CCCN3Cc3ccncc3)n2)ccn1 [CBK288886] | 83.5
6 | Cc1c(-c2cccc(C(=O)N(CCO)C3CCS(=O)(=O)C3)c2)cnn1C (stereo not shown) [CBK307621] | 86.5
7 | CCCC(=O)c1ccc(S(=O)(=O)N2CCCN(Cc3ccc(C#N)cc3)CC2)cc1 [CBK062895] | 106
8 | Nc1n[nH]c(=O)c2c1ncn2[C@H]1C[C@@H](O)[C@@H](CO)O1 [CBK201169] | 93.7
9 | O=S(=O)(Nc1cccc(-c2nnn[nH]2)c1)c1ccc(F)cc1 [CBK050470] | 88.5
10 | COc1ccc(C(=O)N2CCN(Cc3ccc(SC)cc3)CC2)cc1 [CBK058613] | 112
11 | O=C(CN1C(=O)c2ccccc2C1=O)Nc1cccc(-c2cnc3ccccc3n2)c1 [CBK268614] | 115
12 | CN(C)CCCNc1ccc(C(F)(F)F)cn1 [CBK269414] | 86.2
13 | Cc1ccc(S(=O)(=O)NC(CO)C(=O)O)cc1 (stereo not shown) [CBK260965] | 96
14 | O=[N+]([O-])c1ccccc1CS(=O)(=O)Nc1ccc(-c2nnn[nH]2)cc1 [CBK155430] | 94.5
15 | CCn1cc(C(=O)NN)c(=O)c2cc(F)c(NN)cc21 [CBK262735] | 79.1
16 | CCC(=O)N1CCCc2cc(C(O)CN3CCCCC3)ccc21 (stereo not shown) [CBK282130] | 81.6
17 | Cc1cn(C2CC(O)C(C3N(c4ccccc4)CCN3c3ccccc3)O2)c(=O)[nH]c1=O (stereo not shown) [CBK201232] | 99.2
18 | Cc1csc(N2CCC(Nc3cc(CO)ccc3Cl)CC2)n1 [CBK306440] | 89.7
19 | OCc1nnn(-c2ccncc2)c1CO [CBK288549] | 96.8
20 | NC(=O)c1cc(C2CCCN(CC(=O)NCc3cccs3)C2)n[nH]1 (stereo not shown) [CBK305361] | 86.6
21 | CC(=O)N1c2ccccc2C(C)=CC1C1CCCC(=O)C1 (stereo not shown) [CBK007219] | 101
22 | CC1CN(CCNCc2cn(C)nc2-c2cccnc2)CC(C)O1 (stereo not shown) [CBK305151] | 110

Row | Structure (SMILES) | viability at 28.5 h, 10 µM [%]
23 | O=S(=O)(Nc1cccc(Cl)c1Cl)c1cccc2nsnc12 [CBK067296] | 86.3
24 | Cc1cccc(C)c1OCC(=O)Nc1ccc(S(=O)(=O)N2CCOCC2)cc1 [CBK266967] | 94.1
25 | Cc1csc(NC(=O)CSc2nnc3[nH]c(=O)cc(C)n23)n1 [CBK294413] | 81.7
26 | O=C(c1cscn1)N1CCC2(CCCNC2)C1 (stereo not shown) [CBK153230C] | 97
27 | CCC(C(=O)O)N1C(=O)NC2C1N(C)C(=O)N2C (stereo not shown) [CBK287039] | 79.9
28 | COc1cccc(CNC(=O)c2cn[nH]c2-c2cccc(C)c2)c1 [CBK288056] | 102
29 | CN1CCCCCC1c1nc(-c2ccccc2)nn1CCCO (stereo not shown) [CBK307653] | 95.9
30 | Cc1nn(C)c(C)c1CCC(=O)OCc1cc(=O)n2ccccc2n1 [CBK305690] | 90.8
31 | FC(F)(F)c1ccc(Sc2ccncc2)nc1 [CBK115217] | 108
32 | O=S(=O)(Cc1cccc(F)c1F)c1cc2c(N3CCNCC3)nccc2s1 [CBK045690C] | 89.1
33 | CCCCC1=NN2C(=N)/C(=C/c3cn(Cc4ccc([N+](=O)[O-])cc4)c4ccccc34)C(=O)N=C2S1 [CBK264320] | 106
34 | CN(C)Cc1c(O)ccc2c(=O)c(Oc3ccc(-c4ccccc4)cc3)c(C(F)(F)F)oc12 [CBK264519] | 107
35 | Cc1cc(-c2nc3ncccc3o2)ccc1NC(=O)c1ccc2c(c1)OCCO2 [CBK270104] | 94.1
36 | CCn1c(C2CC(=O)N(c3ccc(C)cc3C)C2)nc2ccccc21 (stereo not shown) [CBK287505] | 83.1
37 | COc1ccc(-c2cc(C(F)(F)F)nc(SCC(=O)Nc3ccc4c(c3)OCO4)n2)cc1OC [CBK266169] | 101
38 | CN(C)CCNCc1ccccc1OC1CCCC1 [CBK278214C] | 111
39 | CSCCCN1CCn2nc(CNc3cnccn3)cc2C1 [CBK307136] | 92.5
40 | O=C(c1ccc([N+](=O)[O-])cc1Cl)N1CCN(Cc2ccccc2)CC1 [CBK261778] | 103
41 | CN1CCN(c2snnc2CO)CC1 [CBK025626] | 99.5
42 | CCc1nn(CCC(C)O)c(=O)c2cc3sc(C)cc3n12 (stereo not shown) [CBK282869] | 89.1
43 | C(#Cc1cccc(-c2nc3ccccc3nc2-c2cccc(C#Cc3ccc(Sc4ccccc4)cc3)c2)c1)c1ccc(Sc2ccccc2)cc1 [CBK261158] | 93.2
44 | O=c1c2cccnc2ncn1CC(O)COc1ccc(-c2ccccc2)cc1 (stereo not shown) [CBK296690] | 99.1

Row | Structure (SMILES) | viability at 28.5 h, 10 µM [%]
45 | Fc1ccc(NC(=S)NCC2CC2)c(F)c1 [CBK011398] | 100
46 | COCCNC(=O)N(CCC#N)C1CCCCC1 [CBK156358] | 97.3
47 | COc1ccc(-c2nccnc2NCC2CC2)cc1 [CBK038048] | 95.7
48 | O=C(CCn1c(=O)oc2ccccc21)Nc1ccncc1 [CBK287466] | 92.5
49 | CCCCOc1ccc(C(=O)N/C(=C/c2ccc(OC)cc2)C(=O)O)cc1 [CBK300490] | 87.5
50 | O=[N+]([O-])c1ccc(OC(CNS(=O)(=O)c2ccc(Cl)cc2)c2ccccc2)cc1 (stereo not shown) [CBK262817] | 93
51 | CCOCCCn1c(SCC(=O)NC(Cc2ccccc2)C(=O)O)nc2ccccc2c1=O (stereo not shown) [CBK297132] | 90.5
52 | Cc1cnc(COC(=O)N2C[C@@H](C)O[C@@H](C)C2)cn1 [CBK200124] | 81.4
53 | COCCNC(=O)[C@@H](C)C1CC[C@@]2(C)CC[C@H](NS(C)(=O)=O)[C@@H](C)[C@@H]2[C@H]1O (stereo partly shown) [CBK289457] | 93.5
54 | COc1ccccc1-c1nnc(SCc2ccc(C(=O)O)cc2)[nH]1 [CBK266631] | 99.5
55 | O=[N+]([O-])c1ccc(N2CCN(S(=O)(=O)c3ccccc3)CC2)cc1NCc1cccnc1 [CBK264415] | 96.5
56 | CN1CCC(N2CCN(C(=O)NCC3COc4ccccc4O3)CC2)CC1 (stereo not shown) [CBK155881] | 107
57 | Cc1oc2c(c1C(=O)NC(C)c1ccccn1)CCCC2 (stereo not shown) [CBK281825] | 109
58 | Cc1cc2c(cc3c(=O)n(CC(=O)NCC4CC4)nc(C)n32)s1 [CBK284097] | 96.6
59 | O=C(Nc1ccc(-c2ccoc2)cc1C(=O)O)OCc1ccc([N+](=O)[O-])cc1 [CBK000141D] | 98.9
60 | CN1CCCC1CCOc1ncccc1OCc1ccccc1 (stereo not shown) [CBK036313] | 93.1
61 | COc1ccc([C@@]23CC[C@@H](NC(=O)Nc4ccc(-c5csnn5)cc4)C[C@@H]2N(C)CC3)cc1OC [CBK051163T] | 95.3
62 | NC1CCN(C(=O)Cn2ccc3ccnc(-c4cccs4)c32)CC1 [CBK284750] | 85.7
63 | COc1ccc(-c2ccc(CNCCCN3CCOCC3)o2)cc1Cl [CBK278312C] | 103
64 | O=C(C1CN(Cc2nc3ccsc3c(=O)[nH]2)c2ccccc2O1)N1CCOCC1 (stereo not shown) [CBK295189] | 109
65 | O=c1c2cccnc2nc(SCCO)n1CC1CCCO1 (stereo not shown) [CBK306113] | 80.3
66 | O=C(c1ccsc1NS(=O)(=O)/C=C/c1ccccc1)N1CCOCC1 [CBK042285] | 90.8

Row | Structure (SMILES) | viability at 28.5 h, 10 µM [%]
67 | CC(C)n1cccc1CN[C@@H]1CCC(=O)N[C@H]1c1cccc(F)c1 [CBK282908] | 91.1
68 | Cc1csc2nc(-c3ccccc3)cn12 [CBK098072] | 108
69 | Cc1ccc(C(=O)C2=C(O)C(=O)N(CCO)C2c2ccccc2[N+](=O)[O-])cc1 (stereo not shown) [CBK263822] | 97.1
70 | O=C(O)C1CCCN1S(=O)(=O)c1ccc2[nH]c(=O)c(=O)[nH]c2c1 (stereo not shown) [CBK266971] | 88.9
71 | CC1(C)CC(=O)C=C(C(=O)Nc2c(F)cc(F)cc2OC2CCNCC2)O1 [CBK050332T] | 110
72 | Cc1ccc(C(C)C)c(OCC(=O)NS(=O)(=O)c2ccc(Br)cc2)c1 [CBK268719] | 101
73 | Cc1ccc(C)c(NS(=O)(=O)c2ccc(NC(=O)c3ccc(CN4CCOCC4)cc3)cc2)c1 [CBK264780] | 104
74 | Cc1ccc(-c2csc(NC(=O)c3c(C)noc3C)c2C(=O)NC2CC2)cc1 [CBK268141] | 95.1
75 | Cn1c(-c2ccc(CN3CCCC3)cc2)nc2onc(-c3ccccc3)c2c1=O [CBK039188C] | 95.2
76 | O=C1CN(Cc2ccc3ccccc3n2)CCN1C1CCCC1 [CBK281961] | 88.6
77 | CC(C)c1ccc(NC(=O)CSc2nnc(Cc3cccc4ccccc34)o2)cc1 [CBK267371] | 88.7
78 | CCOC(=O)c1c(C)oc2ccc(O)c(CN3CCCCC3)c12 [CBK263838C] | 103
79 | CCc1onc(C)c1C(=O)NCC1CCCCN1CC(C)C (stereo not shown) [CBK305124] | 106
80 | Cn1cc(-c2ncc(OCCn3cccc3)nc2N)cn1 [CBK145170] | 107
81 | O=C(C(CO)c1ccccc1)N1CCC2(CCN(CCCCOc3ccccc3)C2)C1 (stereo not shown) [CBK161722] | 90
82 | CN(C)CCN(Cc1cccnc1)C(=O)Cc1ccc2c(c1)CCC2 [CBK282770] | 109
83 | CC(Cn1cncn1)C(=O)NC(C)C1CC2CCC1C2 (stereo not shown) [CBK282089] | 109
84 | C/C(=N\Nc1ccc(Cl)c(Cl)c1)c1cccnc1 [CBK015914C] | 93.3
85 | O=C1Nc2ccccc2C12CC(c1ccccc1Cl)=NN2 (stereo not shown) [CBK288004] | 111
86 | Cc1cc2c(cc3c(=O)n(CC(=O)N4CCCC4)nc(C)n32)s1 [CBK284065] | 92.4
87 | Cc1oc2cc(OCC(=O)NCC(=O)O)ccc2c(=O)c1-c1ccc(Cl)cc1 [CBK286697] | 99.6
88 | O=C(COc1ccc2c3c(c(=O)oc2c1)CCC3)Nc1ccc(S(=O)(=O)N2CCOCC2)cc1 [CBK265640] | 82.4
